These are literature values, as cited in patent US20200353086A1, “CONTROLLED-RELEASE FORMULATIONS” (CAMURUS AB, priority 2014, published 2020).

*1 amine or outer side, *2 acyl side, *3 side chain or, on linkers, in order; H or OH if unused. Where a SMILES comes first, the peptide text is derived from it. Side-chain parts run from the residue outwards. [ ]: non-standard residue; d: D form. The star is where a group is joined. Ethylenediamine = C(CN[*:2])N[*:1]; Hyp = O=C(O)[C@@H]1C[C@@H](O)CN1; Phg = N[C@H](C(=O)O)c1ccccc1; CO = O=C([*:1])[*:2]; Bn = c1ccc(C*)cc1

Data set [1] relates to somatostatin receptors (SSTRs).
For data set [2] the following is noted: human, single subcutaneous dose.

In the case of `C[C@@H](O)[C@@H]1NC(=O)[C@H](CCCCN)NC(=O)[C@@H](Cc2c[nH]c3ccccc23)NC(=O)[C@H](Cc2ccccc2)NC(=O)[C@@H](NC(=O)[C@H](N)Cc2ccccc2)CSSC[C@@H](C(=O)N[C@H](CO)[C@@H](C)O)NC1=O` [Octreotide, D-Phe-Cys-Phe-D-Trp-Lys-Thr-Cys-Thr-ol (2-7 disulphide bridge)], under “in vivo”, the terminal half-life result is recorded as “around 1.7 hours”. For the same compound, in data set [1], the “selectivity between somatostatin receptor subtypes” value was “high selectivity for SSTR2 and SSTRS”.

`NCCCC[C@@H]1NC(=O)[C@@H](Cc2c[nH]c3ccccc23)NC(=O)[C@H](c2ccccc2)NC(=O)[C@@H]2C[C@@H](OC(=O)NCCN)CN2C(=O)[C@H](Cc2ccccc2)NC(=O)[C@H](Cc2ccc(OCc3ccccc3)cc2)NC1=O` [Pasireotide] (cyclo([Hyp]([CO-Ethylenediamine])[Phg][dW]KY(Bn)F)): the “initial half-life following the peak” value in data set [2] was 2 to 3 h. Further, the “affinity for somatostatin receptor subtypes” value in data set [1] is “high affinity for somatostatin receptor subtypes sstr1,2,3 and sstr5”.

With “Ala-Gly-Cys-Lys-Asn-Phe-Phe-Trp-Lys-Thr-Phe-Thr-Ser-Cys [SST-14]”, under “natural SST-14”, the biological half-life is listed as 1-3 minutes. Further, the “affinity for somatostatin receptor subtypes” value in data set [1] is on record as “equally high affinity”.
